Measurements from publication PMC10999085, “Synthesis, anticancer evaluation, molecular docking and ADME study of novel pyrido[4ʹ,3ʹ:3,4]pyrazolo[1,5-a]pyrimidines as potential tropomyosin receptor kinase A (TrKA) inhibitors” (BMC Chemistry, 2024).
Values after ≈ are worked out from the molar mass of the structure shown. “Also recorded” adds a separate entry of the source.

Legend:
HCT-116 cell line = assay: MTT assay, HCT-116 cell line; format: cell-based, human; conditions: for Cytotoxicity at 5 µg/l: HCT116, 5 µg/l; for Cytotoxicity at 5 µg/l / Cytotoxicity at 10 µg/l / Cytotoxicity at 20 µg/l: MTT, 24 hr treatment, in % (unit assumed); for Cytotoxicity at 10 µg/l: HCT116, 10 µg/l; for Cytotoxicity at 20 µg/l: HCT116, 20 µg/l; for IC50: Homo sapiens, HCT-116, HCT116, MTT, read-out: IC50 (drug concentration that inhibited 50% of cell proliferation)
Outline: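 Cells in RPMI-1640 with 10% FBS were seeded at 1.0x10^4 cells/well and cultured 48 h, then exposed to compound for 24 hr. Viability was measured by MTT reduction (4 hr), with formazan dissolved in DMSO and read at 570 nm, relative to untreated cells. Values are means of three independent triplicate experiments.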

HepG2 cells = assay: In-vitro cell cycle analysis (PI flow cytometry); format: cell-based, human; conditions: for Cell cycle comment (phase of arrest): HepG2; for DNA content %G0-G1 / DNA content %G2/M / DNA content %Pre-G1 / DNA content %S: HepG2, compound at its IC50; for increase of the proportion of cells in the G2/M phase: HepG2, versus control
Method: HepG-2 cells are pre-cultured in 25 cm^2 cell culture flask. RPMI-1640 medium was used. Tested compounds 7b, 9c, 15b, 16a and 16c were used in the cell treatment at their IC50 by dissolving them in the required medium separately. The procedure was discussed in details in the ESI.
For cell cycle analysis, stained DNA from HepG2 cancer cells was treated with compounds 7b, 15b, 16a and 16c that induce cancer cell death by inhibiting TrKA. From the results in Table 5, it can be seen that the proportion of cells at phase in the pre-G1 of compounds 7b, 15b, 16a and 16c increased the proportion of cells at phase in the G2/M by about 4, 4, 2.5 and 3 folds, respectively.
HepG-2 cells were pre-cultured in 25 cm^2 cell culture flasks; RPMI-1640 medium was used. Tested compounds 7b, 15b, 16a and 16c were dissolved separately in the required medium and used in the cell treatment at their IC50. After overnight treatment the cells were collected and fixed gently with 70% (v/v) ethanol in PBS, incubated overnight at 4 °C, and resuspended in PBS containing 40 µg/ml propidium iodide (PI), 0.1 mg/ml RNase and 0.1% (v/v) Triton X-100 in the dark room at after 30 min at 37 °C, the cell cycle analysis was performed using a flow cytometer, equipped with an argon ion laser at a wavelength of 488 nm (Becton-Dickinson, San Josa, CA, USA) and the percentage of cells at G1, S and G2/M was also calculated.

| IC50 (HCT-116 cell line) [ng/mL] | SMILES | Cytotoxicity at 5 µg/l (HCT-116 cell line) | Cytotoxicity at 10 µg/l (HCT-116 cell line) | Cytotoxicity at 20 µg/l (HCT-116 cell line) | Cell cycle comment (phase of arrest) (HepG2 cells) | DNA content %G0-G1 (HepG2 cells) [%] | DNA content %G2/M (HepG2 cells) [%] | DNA content %Pre-G1 (HepG2 cells) [%] | DNA content %S (HepG2 cells) [%] | increase of the proportion of cells in the G2/M phase (HepG2 cells) |
| --- | --- | --- | --- | --- | --- | --- | --- | --- | --- | --- |
| 2.49 (≈ 0.00714 µM) | COc1ccc(C=C2C(=O)NC(=O)c3c2nn2c(C)cc(C)nc32)cc1 [Compound 7b] | 67.87 | 70.12 | 91.94 | arrested in the cell cycle at G2/M phase; also recorded: arrest in cell cycle at the G2/M phase; also recorded: cell growth arrest@G2/M | 38.42 | 34.70 | 24.89 | 26.88 | about 4 folds |
| 4.37 (≈ 0.013 µM) | Cc1cc(O)n2nc3c(c2n1)C(=O)NC(=O)C3=NNc1ccccc1 [Compound 16a, 4-Hydroxy-2-methyl-7-(2-phenylhydrazono)pyrido[4ʹ,3ʹ:3,4]pyrazolo[1,5-a]pyrimid-ine-8,10(7H,9H)-dione] | 54.16 | 74.90 | 87.26 | arrest in cell cycle at the G2/M phase; also recorded: cell growth arrest@G2/M | 42.11 | 21.74 | 15.33 | 36.15 | ~2.5 folds |
| 4.5 (≈ 0.0123 µM) | COc1ccc(NN=C2C(=O)NC(=O)c3c2nn2c(O)cc(C)nc32)cc1 [Compound 16c, 4-Hydroxy-7-(2-(4-methoxyphenyl)hydrazono)-2-methylpyrido[4ʹ,3ʹ:3,4]pyrazolo[1,5-a]pyrimidine-8,10(7H,9H)-dione] | 55.98 | 78.34 | 99.23 | arrest in cell cycle at the G2/M phase; also recorded: cell growth arrest@G2/M | 41.61 | 26.45 | 12.07 | 31.94 | ~3 folds |
